# Assay results reported in patent publication US12139481B2, “Compositions comprising macrocycle derivatives incorporating bridged macrocycles and methods of producing and using same” (Southwestern Oklahoma State University, priority 2015, dated 2024).
# Read-outs that look alike come from different tables or passages of the source.
# How the values were obtained:
# [1] = tested on: L. donovani promastigotes; test: Antileishmanial Alamar Blue assay on promastigotes; format: cell-based, Leishmania donovani; settings: for X more potent than Pentamidine: L. donovani, ratio of molar IC50 to Pentamidine
# Method: Methods: The compounds were screened in vitro against the promastigote forms of the leishmania parasites employing the Alamar Blue assay as discussed below.
# Antileishmanial activity of the compounds was tested in vitro against a culture of L. donovani promastigotes, grown in RPMI 1640 medium supplemented with 10% fetal calf serum (FCS, Gibco Chem. Co., Grand Island, NY) at 26° C. A 3-day-old culture was diluted to 5×10^5 promastigotes/mL. Drug dilutions (50-3.1 μg/mL) were prepared directly in cell suspension in 96-well plates. Plates were incubated at 26° C. for 48 hours, and growth of leishmania promastigotes was determined by Alamar Blue assay. Standard fluorescence was measured on a FLUOstar® Galaxy plate reader (BMG Lab Technologies, Ortenberg, Germany) at an excitation wavelength of 544 nm and emission wavelength of 590 nm. Pentamidine and amphotericin B were used as the standard antileishmanial agents. Percent growth was calculated and plotted versus test concentration for computing the IC50 values.
# [2] = tested on: Cryptococcus neoformans ATCC 90113; test: Antimicrobial microdilution assay against Cryptococcus neoformans (modified CLSI/NCCLS, optical density); format: cell-based; settings: for X more potent than Amphotericin B: C. neoformans, ratio of molar IC50 to Amphotericin B; for C. neoformans IC50 / IC50: in vitro, C. neoformans ATCC 90113; for IC50: read-out: C. neoformans IC50 (mol/L)
# Method: Summary: Various macrocyclic derivatives constructed in accordance with the presently disclosed and/or claimed inventive concept(s) were screened in vitro against Cryptococcus neoformans ATCC 90113 using a microdilution assay. The minimum fungicidal concentration (MFC), the lowest test concentration that kills the organism, was determined in broth media.
# Antimicrobial assay: Cryptococcus neoformans ATCC 90113 were obtained from the American Type Culture Collection (Manassas, VA.). The susceptibility testing was performed using a modified version of the CLSI (formerly NCCLS) methods (see below), and optical density was used to monitor growth. Samples were serially diluted in 20% DMSO/saline and transferred in duplicate to 96-well flat bottom microplates. Microbial inocula were prepared by correcting the OD630 of cell/spore suspensions in incubation broth RPMI at pH 6.0 to afford final desired target inocula. Amphotericin B (“AMB;” ICN Biomedicals, OH) was used as drug control. The organism concentration was read at 630 nm using the Biotek Powerwave XS plate reader (Bio-Tek instruments, VT) prior to and after incubation. Minimum fungicidal concentrations were determined by removing 5 μL from each clear well, transferring to agar, and incubating until growth was seen. The MFC/MBC is defined as the lowest test concentration that kids the organism (allows no growth on agar).
# References for NCCLS methods referenced above: 1 NCCLS. Reference method for broth dilution antifungal susceptibility testing of yeasts, Vol. 22. Approved standard, 2nd ed. Wayne: National Committee for Clinical Laboratory Standards; 2002: 1-51. 2 NCCLS. Reference method for broth dilution antifungal susceptibility testing of conidium forming filamentous fungi, Vol. 18. Proposed standard M38-P. Wayne: National Committee for Clinical Laboratory Standards; 1998: 1-39. 3 NCCLS. Methods for dilution antimicrobial susceptibility tests for bacteria that grow aerobically, Vol. 20. NCCLS Document M7-A5. Wayne: National Committee for Clinical Laboratory Standards; 2000: 1-58.
# The term “IC50” as used herein will be understood to refer to a test concentration in mol/L that affords 50% inhibition of the microbe relative to negative and positive controls. […] The abbreviation “MFC” as used herein will be understood to refer to a minimum fungicidal concentration, or the lowest test concentration in mol/L that kills the organism. All IC50s are calculated using the XLfit® fit curve fitting software (ID Business Solutions Ltd, Guildford, Surrey, UK).
# General Experimental Procedures. All organisms were obtained from the American Type Culture Collection (Manassas, VA) and include the fungi Candida albicans ATCC 90028, C. glabrata ATCC 90030, C. krusei ATCC 6258, and Cryptococcus neoformans ATCC 90113, and the bacteria Staphylococcus aureus ATCC 29213 and methicillin-resistant S. aureus ATCC 33591 (MRS). All organisms were tested using modified versions of the CLSI (formerly NCCLS) methods. For all organisms, optical density was used to monitor growth (NCCLS, Reference Method for Broth Dilution Antifungal Susceptibility Testing of Yeasts; Approved Standard M27-A2. National Committee on Clinical Laboratory Standards, 2002 22 (15); and NCCLS, Methods for Dilution Antimicrobial Susceptibility Tests for Bacteria that Grow Aerobically; Approved Standard, Seventh Edition M7-A7. National Committee on Clinical Laboratory Standards, 2006. 26(2)).
# Samples (dissolved in DMSO) were serially-diluted in 20% DMSO/saline and transferred (10 μL) in duplicate to 96 well flat bottom microplates.
# [3] = promastigotes, 48 hours, Alamar Blue
# [4] = promastigotes, 48 hours, Alamar Blue, read-out: L. donavani IC50
Molecule,X more potent than Amphotericin B [2],C. neoformans IC50 [2],IC50 [2],other results
"c1ccc(CN2CCCNCCN(Cc3ccccc3)CCCNCC2)cc1 [BME04, Bn2Cyclam]",0.01,12.160 µg/mL,31.9 µM,"X more potent than Pentamidine [1]: 0.77; L. donovani IC50 [1, 3]: 2.63 µg/mL; IC50 [1, 4]: 6.91 µM"
"Clc1cc(CN2CCCNCCN(Cc3cc(Cl)nc(Cl)c3)CCCNCC2)cc(Cl)n1 [DJD29, (DCP)2Cyclam]",,,,"X more potent than Pentamidine [1]: 0.28; L. donovani IC50 [1, 3]: 9.76 µg/mL; IC50 [1, 4]: 18.8 µM"
"c1cc(CN2CCCN3CCNCCCN(CC3)CC2)ccc1CN1CCCN2CCNCCCN(CC2)CC1 [JGL44, p-CB-H2Bcyclams]",0.73,0.180 µg/mL,0.324 µM,"X more potent than Pentamidine [1]: 0.11; L. donovani IC50 [1, 3]: 28.08 µg/mL; IC50 [1, 4]: 50.6 µM"
"Cl.Cl.Cl.Cl.Cl.Cl.Cl.Cl.c1cc(CN2CCNCCCN3CCN(CC3)CC2)ccc1CN1CCNCCCN2CCN(CC2)CC1 [OB45B, p-SB-homocyclens HCl salt]",0.67,0.290 µg/mL,,"X more potent than Pentamidine [1]: 0.13; L. donovani IC50 [1, 3]: 34.55 µg/mL; IC50 ([1]; promastigotes, 48 hours, Alamar Blue, HCl salt, read-out: L. donavani IC50): 42.2 µM; IC50 ([2]; HCl salt): 0.354 µM"
"N=C(N)c1ccc(OCCCCCOc2ccc(C(=N)N)cc2)cc1 [PENT, Pentamidine, reference compound]",,,,"X more potent than Pentamidine [1]: 1.00; IC50 ([1]; Leishmania donovani, 48 h, read-out: L. donavani IC50 (mol/L)): 5.32 µM; IC50 ([1]; Leishmania donovani, promastigotes, 48 hours, Alamar Blue, read-out: L. donovani IC50): 1.81 µg/mL; IC50 ([1]; Leishmania donovani, read-out: IC50 against L. donovani): 5.32 µM"
"CC(=O)[O-].CC(=O)[O-].CC(=O)[O-].F[P-](F)(F)(F)(F)F.F[P-](F)(F)(F)(F)F.F[P-](F)(F)(F)(F)F.[Co+3].[Co+3].c1cc(CN2CCCN3CCNCCCN(CC3)CC2)ccc1CN1CCCN2CCNCCCN(CC2)CC1 [TJH414B, [Co2(H2-p-CB-cyclams)(OAc)3][PF6]3]",1.31,0.234 µg/mL,0.182 µM,
"CC(=O)[O-].CC(=O)[O-].F[P-](F)(F)(F)(F)F.F[P-](F)(F)(F)(F)F.[Ni+2].[Ni+2].c1cc(CN2CCCN3CCNCCCN(CC3)CC2)ccc1CN1CCCN2CCNCCCN(CC2)CC1 [TJH415B, [Ni2(H2-p-CB-cyclams)(OAc)2][PF6]2]",0.30,0.850 µg/mL,0.787 µM,
"CC(=O)[O-].CC(=O)[O-].F[P-](F)(F)(F)(F)F.F[P-](F)(F)(F)(F)F.O.O.O.O.O.[Cu+2].[Cu+2].c1cc(CN2CCCN3CCNCCCN(CC3)CC2)ccc1CN1CCCN2CCNCCCN(CC2)CC1 [TJH416B, [Cu2(H2-p-CB-cyclams)(OAc)2][PF6]2•5H2O]",0.09,3.030 µg/mL,2.57 µM,
"CC(=O)[O-].CN1CCN2CCN(CC1)CCN(Cc1ccccc1)CC2.F[P-](F)(F)(F)(F)F.F[P-](F)(F)(F)(F)F.[Co+3] [TRH15, [Co(Bn1Me1Bcyclen)(OAc)][PF6]2]",0.21,≤ 0.800 µg/mL,1.13 µM,
"CC(=O)[O-].CN1CCCN2CCN(CCCN(Cc3ccccc3)CC2)CC1.F[P-](F)(F)(F)(F)F.[Co+2] [TRH16, [Co(Bn1Me1Bcyclam)(OAc)]PF6]",0.02,9.190 µg/mL,15.5 µM,
Fe(Bn2Cyclam)Cl2•0.5 H2O [TJH398A],,,,"X more potent than Pentamidine [1]: 1.20; L. donovani IC50 [1, 3]: 2.28 µg/mL; IC50 [1, 4]: 4.42 µM"
Ni(Py-SB-Cyclam)Cl2•3H2O [ADS20],0.01,18.590 µg/mL,37.1 µM,
[Co2(p-CB-Homocyclens)(OAc)2][PF6]2 [TJH379A],0.32,≤ 0.800 µg/mL,0.74 µM,
[Co(Me1Pic1-CB-cyclen)](PF6)3 [KRW48],0.18,1.090 µg/mL,1.3 µM,
[Co(Me1Py1-CB-Cyclam)Cl]PF6 [DGJ012],0.03,4.730 µg/mL,8.29 µM,
[Cu2(m-SB-cyclam-cyclen)(OAc)][PF6]3•2H2O [CMB034],0.35,≤ 0.800 µg/mL,0.676 µM,

Molecule,X more potent than Amphotericin B [2],C. neoformans IC50 [2],IC50 [2],other results
[Cu2(p-CB-Homocyclens)(OAc)2][PF6]2 [ANC011],0.06,4.190 µg/mL,3.85 µM,
[Cu2(p-SB-cyclam-cyclen)(OAc)1.2][PF6]2.8 [CMB018],0.09,3.020 µg/mL,2.67 µM,
[Cu(Bn2PBCyclen)(C2H3O2)0.4][PF6]1.6 [AW040],0.02,7.050 µg/mL,9.91 µM,
[Cu(dcp1-SB-cyclen)(OAc)]PF6 [OB105],0.08,2.190 µg/mL,3.1 µM,
[Fe2(m-cyclam-homocyclen)][FeCl4]2•7H2O [AW048],0.17,1.660 µg/mL,1.38 µM,
[Fe(Py-SB-Cyclam)Cl]PF6 [ADS18C],0.01,18.540 µg/mL,33.5 µM,
[Mn(Py-SB-Cyclam)Cl]PF6•3H2O [ADS17],0.03,5.220 µg/mL,8.6 µM,
[Ni2(m-SB-cyclam-cyclen)(OAc)][PF6]3 [CMB033],0.16,1.710 µg/mL,1.5 µM,
[Ni2(p-SB-cyclam-cyclen)(OAc)][PF6]3•H2O [CMB017A],0.06,4.940 µg/mL,4.27 µM,
[Zn2(m-CB-Homocyclens)(OAc)0.5][PF6]3.5 [CDG037],0.18,1.620 µg/mL,1.32 µM,
[Zn2(m-SB-cyclam-cyclen)(OAc)2][PF6]2•3.3H2O [CMB035],0.33,≤ 0.800 µg/mL,0.711 µM,
[Zn(H2PBCyclam)(OAc)]PF6•2.5NH4PF6 [SLK41],0.04,5.190 µg/mL,5.66 µM,
[Zn(Me1-SB-Cyclam)(C2H3O2)]PF6 [DLM32],0.01,17.280 µg/mL,33.9 µM,
[Zn(Me1Pic1-CB-cyclen)](PF6)2 [KRW49],0.03,5.230 µg/mL,7.53 µM,
m-CB-cyclam-cyclen [DGJ036],0.02,5.800 µg/mL,10.5 µM,
